Source: patent US12357695B2, “Peptides and nanoparticles for intracellular delivery of molecules” (AADIGEN, LLC, priority 2019, dated 2025)
Entries after “also recorded” stand apart in the source; their conditions may differ. Square brackets hold non-standard residues; d marks the D form. Ends that are not written are not given here. Stearyl = stearyl group covalently linked to the N-terminus; Aun = NCCCCCCCCCCC(=O)O; βAla = NCCC(=O)O

Experiments:
A375/Luc cells = assay: Cellular delivery of siRNA targeting Luciferase, luciferase silencing at 48 hrs; assay type: cell-based; details: for reduction of ADGN-100 or ADGN-106 efficiency by modification / reduction of level of luciferase (siRNA mediated silencing): absence of serum treatment; for reduction of efficiency / siRNA mediated luciferase silencing in the presence of serum: complexes incubated 3 hrs in 25% serum; for reduction of luciferase expression level: presence of serum
Experimental: FIGS. 3A-3C show luciferase expression in A375/Luc cells treated with ADGN-peptide/siRNA complexes. A375/Luc cells cultured in 48 well plates were transfected with ADGN-peptide nanoparticles. ADGN-100, ADGN-106, ADGN-100RI, ADGN-106RI, ADGN-100 Stearyl, ADGN-Hydro1, ADGN-Hydro2, ADGN-Hydro3, ADGN-Hydro4, ADGN-Hydro5, ADGN-Hydro6 and ADGN-peptide/ADGN-100PEG 10% nanoparticles containing 10 nM or 25 nM siRNA were formed in sterile water, diluted in sterile water containing 5% Sucrose and filtered with 0.45 μm PES filters. FIG. 3C impact of peGylated ADGN-100 on the transfection efficiency. siRNA Luc (10 nM and 25 nM) were associated to ADGN-100 solution containing 5 to 50% of ADGN-100-PEG or to ADGN-100PEG. ADGN/siRNA complexes were incubated for 3 hrs in the presence of 25% serum prior transfection. Luciferase expression was monitored 48 hours post transfection and results were reported as RLU (luminescence):mg of protein.
(§1) Complex formation with siRNA. The following protocols were used for the transfection of 2-5 106 Cells or Cells at confluency of about 70-80% cultured in 24 well plates. ADGN peptide/siRNA Luc particles were prepared at a 20:1 molar ratio of ADGN-Peptide/pGL4. using 20 nM siRNA. The siRNA duplex (10 and 25 nM) was diluted in 20 μl of sterile water (GIBCO) at room temperature. 1.5 or 3 μl of a Final Peptide Solution (55 μM) was added to obtain a total volume of 20 μl. The volume was adjusted to 50 μl with sterile water and was mixed gently with vortex 1 min low speed and incubated 30 min at room temperature. Then the volume was made up to 100 μl by adding sterile water containing 5% sucrose, and the solution was mixed gently with vortex 1 min low speed and incubate 5 min at 37° C. and then was proceeded to cell transfection.
Transfection protocol. Protocol is reported for 24 well plate format. Cells were cultured in Dulbecco's Modified Eagle's Medium (DMEM), supplemented with 2 mM glutamine, 1% antibiotics (streptomycin 10,000 μg/mL, penicillin, 10,000 IU/mL) and 10% (w/v) foetal calf serum (FCS), at 37° C. in a humidified atmosphere containing 5% CO2. 24 well plates seeded with 150,000 cells the day prior to transfection were grown to 50-60% confluence and set up to be at about 70% confluences at the time of transfection. Before transfection, cells were washed twice with DMEM. Cells were then overlaid with 0.1 ml of ADGN-peptide/cargo complex solution containing 0.25 μg mRNA, 0.15 μg plasmid DNA or 10-25 nM siRNA, mixed gently, and incubated for 10 min at 37° C. 0.2 mL of fresh DMEM, were added and cells were incubated for 20 min at 37° C. 1 mL of complete DMEM containing 15% FCS were then added in order to reach a final FCS concentration of 10%, without removing the overlay of ADGN-peptide/cargo complexes. Cells were returned to the incubator (37° C., 5% CO2) and 72 hrs post transfection.
ADGN-peptides were evaluated for cellular delivery of siRNA duplex targeting Luciferase in A375/Luc cells. siRNA targeting luciferase (10 and 25 nM) in sterile water (GIBCO) were mixed with ADGN-100, ADGN-100RI, ADGN-106, ADGN-106RI, ADGN-100 Stearyl, ADGN-100Hydro1, ADGN-100Hydro2, ADGN-100Hydro4, ADGN-100Hydro3, ADGN-100Hydro5 and ADGN-100Hydro6. ADGN-peptide/siRNA complexes were filtered with 0.45 μm PES filter. In order to evaluate the stability of the ADGN/siRNA complexes in high serum conditions, the complexes were incubated for 3 hrs in the presence of 25% serum, then A375/Luc cells were transfected and Luciferase expression was monitored at 48 hrs.

mice or rat models = assay: Summary of cargo delivery to targeted organ (Table 1); assay type: in vivo
From the text: Table 1 lists a summary of cell-penetrating peptides that have been proven successful in delivering various cargo molecules to on or more targeted organ (e.g., by intravenous (IV), intramuscular (IM), or subcutaneous (SQ) administration, or intratraccheal instillation or nebulization (NB)) in mice or rat models.

[1] = DLS particle size and level of aggregation of ADGN-peptide/pGL4 plasmid DNA complexes; assay type: physicochemical; details: pGL4 5.6 kb plasmid
Experimental: as §1, with “plasmid DNA.” for “siRNA.”, “peptide/plasmid DNA pGL4” for “peptide/siRNA Luc”, “(0.2 μg). PGL4 plasmid (0.15 μg)” for “20 nM siRNA. The siRNA duplex (10 and 25 nM)”, “10” for “1.5 or 3”, “μl” for “μl of a”, “Solution” for “Solution (55 μM)”
The ability of the different ADGN-peptides to form stable nanoparticles with DNA pGL4 a 5.6KpB plasmid expression Luciferase was analyzed. The particle sizes and level of aggregation were measured on DLS NanoZS (Malvern Ltd). The mean size and the polydispersity of the ADGN/plasmid DNA complexes were determined at 25° C. for 3 minute per measurement. In order to remove large particles, ADGN/plasmid DNA complexed were filtered using either PES or PVDF 0.45 μm filters. Data are shown in FIG. 10 for a mean of 3 separate experiments.

[2] = cargoes and route (IV, IM, SQ, NB) per peptide as listed in Table 1

Row | Substance | reduction of ADGN-100 or ADGN-106 efficiency by modification (A375/Luc cells) | reduction of efficiency / siRNA mediated luciferase silencing in the presence of serum (A375/Luc cells) | Targeted Organ (mice or rat models; [2]) | ability to form stable nanoparticles/complex with plasmid DNA [1] | reduction of luciferase expression level (A375/Luc cells; 10 nM siRNA) [%] | reduction of luciferase expression level (A375/Luc cells; 25 nM siRNA) [%] | reduction of level of luciferase (siRNA mediated silencing) (A375/Luc cells; 10 nM siRNA) [%] | reduction of level of luciferase (siRNA mediated silencing) (A375/Luc cells; 25 nM siRNA) [%] | Targeted Organ (mice or rat models; cargoes and route (IV, IM, SQ, NB) per peptide as listed in Table 1, listed as ADGN-100a)
1 | Ac-GYVS-Aun-KWRSALWRWRLWRVRSWSR-NH2 (Ac-GYVS[Aun]KWRSALWRWRLWRVRSWSR-NH2; SMILES CC(=O)NCC(=O)N[C@@H](Cc1ccc(O)cc1)C(=O)N[C@H](C(=O)N[C@@H](CO)C(=O)NCCCCCCCCCCC(=O)N[C@@H](CCCCN)C(=O)N[C@@H](Cc1c[nH]c2ccccc12)C(=O)N[C@@H](CCCNC(=N)N)C(=O)N[C@@H](CO)C(=O)N[C@@H](C)C(=O)N[C@@H](CC(C)C)C(=O)N[C@@H](Cc1c[nH]c2ccccc12)C(=O)N[C@@H](CCCNC(=N)N)C(=O)N[C@@H](Cc1c[nH]c2ccccc12)C(=O)N[C@@H](CCCNC(=N)N)C(=O)N[C@@H](CC(C)C)C(=O)N[C@@H](Cc1c[nH]c2ccccc12)C(=O)N[C@@H](CCCNC(=N)N)C(=O)N[C@H](C(=O)N[C@@H](CCCNC(=N)N)C(=O)N[C@@H](CO)C(=O)N[C@@H](Cc1c[nH]c2ccccc12)C(=O)N[C@@H](CO)C(=O)N[C@@H](CCCNC(=N)N)C(N)=O)C(C)C)C(C)C) [ADGN-100 hydro-6] | do not affected | 20% | – | – | – | – | – | – | –
2 | Stearyl-βA-KWRSALWRWRLWRVRSWSR-NH2 (Stearyl-[βAla]KWRSALWRWRLWRVRSWSR-NH2; not fully specified; printed as Stearyl-βA-KWRSALWRWRLWRVRSWSR-NH2) [ADGN-100 Stearyl] | do not affected | 20% | Lung/Liver/; also recorded: Kidney/Pancreas | – | – | – | – | – | –
3 | akwllrwlsrwlrwlarwlr ([dA][dK][dW][dL][dL][dR][dW][dL][dS][dR][dW][dL][dR][dW][dL][dA][dR][dW][dL][dR]; also: retro-inverso) [ADGN-106-RI] | do not affected | not affected by the presence of serum | Liver/Lung | did not improve the potency of ADGN-106 to form stable particle with plasmid | 77 | 95 | – | – | –
4 | rswsrvrwlrwrwgasrwk ([dR][dS][dW][dS][dR][dV][dR][dW][dL][dR][dW][dR][dW]G[dA][dS][dR][dW][dK]; also: retro-inverso) [ADGN-100-RI] | do not affected | not affected by the presence of serum | Liver/Lung/; also recorded: Kidney/Spleen | did not modifie the ability of the peptide to form stable complex with plasmid DNA | 77 | 95 | – | – | –
5 | βAKWRSAGWRWRLW RVRSWSR (AKWRSAGWRWRLWRVRSWSR; N-terminal beta-alanine; VARIANT 1 beta-A) [ADGN-100] | – | 90% | – | – | – | – | 78 | 93 | Lung/Liver/; also recorded: Kidney/Pancreas
6 | βALWRALWRLWRSLWRLLWKA ([βAla]LWRALWRLWRSLWRLLWKA) [ADGN-106] | – | 90% | Liver/Lung | large size and a the poor stability | – | – | 78 | 93 | –
